This is an account of results in PubChem BioAssay AID179 (DTP/NCI, 2004).

Activity calls are given as the source filed them.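 How the source made its calls: active means compounds giving half or more protection of infected cells from virus-caused growth loss, again on retest; inactive means the rest.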 Where a SMILES comes first, the peptide text is derived from it. The star is where a group is joined. Cbz = O=C(OCc1ccccc1)*

For this assay, the system named is CEM cells HIV-1 protection, formazan growth assay. Kind of assay: NCI AIDS Antiviral Assay. As to conditions: for IC50: measured here: growth of uninfected CEM cells. The gist of the method:
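Category rules: moderately active means at least 50% protection on retest, and confirmed active means 100% protection reproducibly. The underlying data came from a formazan growth assay in HIV-1-infected CEM cells.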

On to `CCN(CC)C(=O)c1ccc(C)c(N=NN(C)C)c1`, for which the EC50 – broadly, the concentration that produces a half-maximal response – is more than 501 µM and the IC50 (commonly the midpoint of a concentration-inhibition curve) stood at 316 µM.
For the compound `O=C1C2C(C(=O)N1c1ccccc1)C1(c3ccccc3)OC2(c2ccccc2)c2ccccc21` (stereo not given), the result was inactive.
With `CN(O)C(=O)c1ccc(OCc2cccc(Cl)c2)cc1`, the EC50 is more than 200 µM and the IC50 stood at 12.6 µM.
Taken in the same sequence, the figures for `O=C1[C@H]2ON(c3ccccc3)C(c3ccccc3)[C@H]2C(=O)N1c1ccc(Cc2ccc(N3C(=O)[C@@H]4ON(c5ccccc5)C(c5ccccc5)[C@@H]4C3=O)cc2)cc1` (stereo not given in full) were more than 13.2 µM and more than 13.2 µM.
As to `Cc1cc2c(C(C)C)c(O)c(O)c(C=NCCO)c2c(O)c1-c1c(C)cc2c(C(C)C)c(O)c(O)c(C=NCCO)c2c1O`, the outcome was inactive.
As for `Cn1c2ccc3cc2c(=S)c2cc(ccc21)OCCOCCOCCOCCOCCO3`, the EC50 is more than 200 µM and the IC50 turned out to be 61.7 µM.
Take `Clc1cnnc2nc[nH]c12`: the EC50 is more than 1150 µM and the 50% inhibitory concentration (IC50) is 135 µM.
Turning to `C(=C(\C[P+](c1ccccc1)(c1ccccc1)c1ccccc1)c1ccccc1)/c1ccccc1`, the EC50 was more than 200 µM and the IC50 turned out to be 1 µM.
Taken in the same sequence, the figures for `Cc1nn(C(=O)Cc2ccccc2)c2c1C(c1ccc([N+](=O)[O-])cc1)SC(N)=N2` (stereo not given) were 77.6 µM and 117 µM.
For `NC(=N\N=C/c1ccc(Cl)cc1)/C(N)=N\N=C/c1ccc(Cl)cc1`, the result was inactive.
`Cc1cc(=O)c2c(ccc3c(=O)cc(C)[nH]c32)[nH]1`: the EC50 is more than 257 µM and the half-maximal inhibitory concentration (IC50) is 240 µM.
For `CCn1c(SCC(=O)N/N=C2\SCC(=O)N2c2ccc(C)cc2)nc2ccccc2c1=O` the same measures were more than 200 µM and 66.1 µM.
On to `CC(=O)Oc1c(C)cc2c(c1C)C(C)CN2C(C)=O` (stereo not given), for which the EC50 is more than 200 µM and the IC50 is more than 200 µM.
Consider `COc1ccccc1-c1cc(B(O)O)ccc1OC`, for which the EC50 is more than 200 µM and the IC50 was 40.7 µM.
On to `Cc1sc2[nH]c(=O)oc(=O)c2c1C`, for which the EC50 was more than 200 µM and the concentration for half-maximal inhibition (IC50) worked out at 30.2 µM.
Taken in the same sequence, the figures for `COc1ccc(C(=O)C(C(=O)C(=O)Nc2ccc(Cl)c(Cl)c2)c2ccc(OC)cc2)cc1` (stereo not given) were more than 75.9 µM and more than 75.9 µM.
Taken in the same sequence, the figures for `COc1ccc(/C(C)=N\N)cc1` were more than 200 µM and more than 200 µM.
For `COc1ccc(Nc2nc3ccccc3nc2C(=O)O)cc1OC` the same measures were more than 200 µM and 85.1 µM.
For the compound `Cc1cccc(C(C)(C)C)c1NC(=O)CCc1n[nH]c(=S)o1`, the EC50 is more than 776 µM and the IC50 turned out to be 692 µM.
Turning to `C[C@]12CCC(=O)C=C1CC[C@@H]1C2CC[C@]2(C)Nc3[nH]ncc3CC12` (stereo not given in full), the result was inactive.
Regarding `Cc1cc(S(=O)(=O)NC2=NCc3c(F)cccc3N2)c(S)cc1Cl`, the EC50 is more than 97.7 µM and the IC50 is 72.4 µM.
As to `Clc1cc2n[se]nc2cc1Cl`, the result was inactive.
Take `COC(=O)/C(=C\c1cn(C(C)=O)c2ccccc12)P(=O)(OC)OC`: the EC50 was more than 200 µM and the concentration for half-maximal inhibition (IC50) is 33.1 µM.
Taken in the same sequence, the figures for `CCOC(=O)C1(C(=O)OCC)COC(=O)C1CN1Cc2cc3ccccc3nc2C1` (stereo not given) were more than 427 µM and 47.9 µM.
In the case of `COc1ccc(N2C(=O)C3c4[nH]c5ccc(F)cc5c4C4CCC(c5ccccc5)CC4C3C2=O)cc1` (stereo not given), the EC50 was more than 200 µM and the IC50 turned out to be 36.3 µM.
Taken in the same sequence, the figures for `COC(=O)[C@H]1C[C@H]1NC(=O)C(CC(=O)OCc1ccccc1)NC(=O)OCc1ccccc1` (stereo not given in full) were more than 200 µM and 79.4 µM.
For `COC(=O)/C(=N/Nc1cccc(Cl)c1)C(C(=O)C(=O)Nc1cccc(Cl)c1C)c1nc2ccccc2nc1C` (stereo not given), the EC50 is more than 12.9 µM and the 50% inhibitory concentration (IC50) is more than 12.9 µM.
With `Cc1cc(Cl)c(O)c(C2(C(O)c3ccc(O)cc3)NC(=S)NC2=O)c1` (stereo not given), the EC50 was more than 200 µM and the IC50 was determined as 107 µM.
Taken in the same sequence, the figures for `COCCN(CCOC)C1C2=C(CCCC2)OS(=O)(=O)C1c1ccccc1` (stereo not given) were more than 66.1 µM and more than 66.1 µM.
In the case of `COc1cc(-c2nccc3cc(OC)c(OC)cc23)ccc1O`, the outcome was inactive.
Take `CCOc1ccccc1NC(=O)C1=C(C)NC(C)=C(C(=O)Nc2ccccc2OCC)C1c1ccc2c(c1)OCO2`: the EC50 is more than 12.9 µM and the IC50 is more than 12.9 µM.
For `O=[N+]([O-])c1cc([N+](=O)[O-])c(C(Cl)C(Cl)c2ccccc2)cc1C(Cl)C(Cl)c1ccccc1` (stereo not given), the EC50 was more than 5.25 µM and the half-inhibitory concentration (IC50) was more than 5.25 µM.
For `Cc1ccc([N+](=O)[O-])cc1NC(=O)C(=O)Cc1nc2ccc(C(=O)c3ccccc3)cc2[nH]c1=O`, the EC50 is more than 275 µM and the 50% inhibitory concentration (IC50) worked out at 110 µM.
Regarding `O=C(c1ccccc1)C1C(c2ccccc2)N1S(=O)(=O)c1ccccc1` (stereo not given), the EC50 is more than 20 µM and the IC50 is 3.02 µM.
Taken in the same sequence, the figures for `O=[N+]([O-])c1ccc2nc3n(c2c1)C(c1c(F)cccc1F)SC3` (stereo not given) were more than 200 µM and more than 200 µM.
Take `N#Cc1sc2c(c1O)c(=O)n(-c1ccccc1)c(=S)n2-c1ccccc1`: the EC50 is more than 661 µM and the IC50 is 30.9 µM.
For `COc1cc2c(cc1O)Cc1c-2[n+](C)cc2cc(OC)c(OC)cc12` the same measures were more than 347 µM and 1.62 µM.
As to `O=[N+]([O-])c1cc(C(F)(F)F)cc2n[se]nc12`, the outcome was inactive.
Regarding `Cc1cc(Cl)cc(S)c1S(=O)(=O)Nc1nnc2c3ccccc3cnn12`, the EC50 was 77.6 µM and the IC50 is more than 200 µM.
As for `O=c1oc2c(ccc3nc(-c4ccccc4)sc32)c(N2CCOCC2)c1Cl`, the result was inactive.
Turning to `COc1ccccc1NC(=O)CC(=O)N1N=C(C)C(N=Nc2ccc(C(=O)O)cc2)C1=O` (stereo not given), the EC50 was more than 200 µM and the IC50 is more than 200 µM.
On to `CO[C@H]1c2cccc3cccc(c23)[C@@H]1n1[nH]c(=O)n(C(C)(C)C)c1=O`, for which the EC50 is more than 200 µM and the IC50 was more than 200 µM.
For the compound `C(#C[C@@]12CCC[C@@H]1NCO2)c1ccc2c(c1)OCO2`, the EC50 is more than 200 µM and the IC50 turned out to be 50.1 µM.
`CSc1c(C(=O)Nc2ccccc2)c(N)n(N)c(=O)c1C#N`: the EC50 is 55 µM and the IC50 is more than 200 µM.
With `CC(C)(C)OC(=O)N1CC(C)(C)N2C(=O)C3(CCCO3)C12` (stereo not given), the EC50 was 33.9 µM and the IC50 amounted to 347 µM.
Consider `C/C(CC(=O)Nc1ccc([N+](=O)[O-])cc1)=N\NC(N)=O`, for which the EC50 was more than 468 µM and the IC50 is more than 468 µM.
On to `O=C(O)C(Cc1ccccc1)NC(=O)C1CCCN1C(=O)OCc1ccccc1` (stereo not drawn) (Cbz-Pro-Phe-OH; configuration not given here), for which the EC50 is more than 631 µM and the IC50 was more than 631 µM.
Consider `CCCC(=O)CC(C)C(=O)C(=O)NC12CC3CC(CC(C3)C1)C2` (stereo not given), for which the EC50 is more than 295 µM and the IC50 is more than 295 µM.
`C[C@@H]1C[C@@]2(O)[C@@H]3C[C@H](F)C4=CC(=O)CC[C@]4(C)[C@H]3[C@@H](O)C[C@]2(C)[C@@]1(O)C(=O)CO`: the EC50 was more than 200 µM and the IC50 amounted to 178 µM.
Taken in the same sequence, the figures for `O=C1c2ccccc2C(=O)c2sc(Nc3ccc(Cl)c(Cl)c3)nc21` were more than 19.1 µM and 15.8 µM.
Taken in the same sequence, the figures for `O=NNc1ccc(S(=O)(=O)c2ccccc2)cn1` were more than 200 µM and more than 200 µM.
Taken in the same sequence, the figures for `COc1c2cc(C(C)(C)C)cc1CSCc1cc(C(C)(C)C)cc(c1OC)CCCCC2` were more than 200 µM and more than 200 µM.
With `O=C1Oc2ccccc2C(=O)/C1=C/N1C(=O)/C(=C/c2ccccc2)NC1=S`, the EC50 was more than 200 µM and the IC50 was more than 100 µM.
For `C#CCN1C(=O)c2ccccc2S1(=O)=O` the same measures were more than 200 µM and more than 200 µM.
Taken in the same sequence, the figures for `COc1ccc(C(c2cc(OC)c(OC)c(OC)c2)N2C(=O)CCC2C(=O)O)cc1` (stereo not given) were more than 200 µM and 33.1 µM.
Taken in the same sequence, the figures for `O=C(Nc1ccccc1)c1cc(S(=O)(=O)NC2=NC(c3ccccc3)c3cc(Cl)ccc3N2)c(SSc2cc(Cl)c(C(=O)Nc3ccccc3)cc2S(=O)(=O)NC2=NC(c3ccccc3)c3cc(Cl)ccc3N2)cc1Cl` (stereo not given) were more than 200 µM and more than 200 µM.
On to `Cn1nc(-c2ccccc2)c2c(/C=C/c3ccc(Cl)cc3)onc2c1=O`, for which the EC50 was more than 14.5 µM and the IC50 is more than 14.5 µM.
As for `CCC1OC2CS(=O)(=O)CC2O1` (stereo not given), the EC50 was more than 1290 µM and the IC50 was more than 1290 µM.
On to `CCSCCCCCCCCCCC(=O)O`, for which the EC50 is more than 200 µM and the half-inhibitory concentration (IC50) stood at 63.1 µM.
On to `S=c1[nH]nc(-c2ccccc2Cl)o1`, for which the EC50 was more than 200 µM and the half-maximal inhibitory concentration (IC50) is 195 µM.
As to `CC(C)C(Nc1c2ccccc2nc2ccccc12)C(=O)O` (stereo not given), the result was inactive.
As to `COc1ccc2ccccc2c1Br`, the EC50 is more than 200 µM and the IC50 is more than 200 µM.
With `NC1=C(O)c2cccc3cccc(c23)C1=O`, the result was inactive.
On to `CC(NC(=O)C(C)C(=O)Nc1ccc(C(F)(F)F)cc1)C(N)=O` (stereo not given), for which the EC50 was more than 200 µM and the IC50 was more than 200 µM.
As for `Cc1ccc2nc(-c3ccc4nc(-c5ccc(N=Nc6ccc(-c7nc8ccc(-c9nc%10ccc(C)c(S(=O)(=O)O)c%10s9)cc8s7)cc6)cc5)sc4c3)sc2c1S(=O)(=O)O`, the EC50 was 19.5 µM and the concentration for half-maximal inhibition (IC50) is more than 200 µM.
For the compound `S=C1CC(c2ccccc2)Sc2cc(Cl)ccc2N1` (stereo not given), the EC50 is more than 200 µM and the IC50 worked out at 1.26 µM.
Taken in the same sequence, the figures for `CN(CCN1C(=O)c2cccc3cc(N)cc(c23)C1=O)CCN1C(=O)c2cccc3cc(N)cc(c23)C1=O` were more than 21.9 µM and 0.155 µM.
For `O=C1CC(=O)NC(=NNS(=O)(=O)c2ccccc2)N1` the same measures were more than 200 µM and more than 200 µM.
Taken in the same sequence, the figures for `COc1ccc(Nc2nc3ccc(C(F)(F)F)cc3nc2-c2ccccc2)cc1OC` were more than 17 µM and more than 17 µM.
On to `CC(=O)Nc1ccc([As](=O)(O)O)cc1[N+](=O)[O-]`, for which the half-maximal effective concentration (EC50) is more than 200 µM and the IC50 is more than 200 µM.
